# In ChEMBL document CHEMBL5608242 (J Med Chem, 2024):
# Tests used:
# [1] = biological target: T1, Histone deacetylase 1 (Homo sapiens, UniProt Q13547); assay: biochemical
# [2] = biological target: T2, Protein deacetylase HDAC6 (Homo sapiens, UniProt Q9UBN7); assay: biochemical
# T2 sequence (Q9UBN7 whole entry): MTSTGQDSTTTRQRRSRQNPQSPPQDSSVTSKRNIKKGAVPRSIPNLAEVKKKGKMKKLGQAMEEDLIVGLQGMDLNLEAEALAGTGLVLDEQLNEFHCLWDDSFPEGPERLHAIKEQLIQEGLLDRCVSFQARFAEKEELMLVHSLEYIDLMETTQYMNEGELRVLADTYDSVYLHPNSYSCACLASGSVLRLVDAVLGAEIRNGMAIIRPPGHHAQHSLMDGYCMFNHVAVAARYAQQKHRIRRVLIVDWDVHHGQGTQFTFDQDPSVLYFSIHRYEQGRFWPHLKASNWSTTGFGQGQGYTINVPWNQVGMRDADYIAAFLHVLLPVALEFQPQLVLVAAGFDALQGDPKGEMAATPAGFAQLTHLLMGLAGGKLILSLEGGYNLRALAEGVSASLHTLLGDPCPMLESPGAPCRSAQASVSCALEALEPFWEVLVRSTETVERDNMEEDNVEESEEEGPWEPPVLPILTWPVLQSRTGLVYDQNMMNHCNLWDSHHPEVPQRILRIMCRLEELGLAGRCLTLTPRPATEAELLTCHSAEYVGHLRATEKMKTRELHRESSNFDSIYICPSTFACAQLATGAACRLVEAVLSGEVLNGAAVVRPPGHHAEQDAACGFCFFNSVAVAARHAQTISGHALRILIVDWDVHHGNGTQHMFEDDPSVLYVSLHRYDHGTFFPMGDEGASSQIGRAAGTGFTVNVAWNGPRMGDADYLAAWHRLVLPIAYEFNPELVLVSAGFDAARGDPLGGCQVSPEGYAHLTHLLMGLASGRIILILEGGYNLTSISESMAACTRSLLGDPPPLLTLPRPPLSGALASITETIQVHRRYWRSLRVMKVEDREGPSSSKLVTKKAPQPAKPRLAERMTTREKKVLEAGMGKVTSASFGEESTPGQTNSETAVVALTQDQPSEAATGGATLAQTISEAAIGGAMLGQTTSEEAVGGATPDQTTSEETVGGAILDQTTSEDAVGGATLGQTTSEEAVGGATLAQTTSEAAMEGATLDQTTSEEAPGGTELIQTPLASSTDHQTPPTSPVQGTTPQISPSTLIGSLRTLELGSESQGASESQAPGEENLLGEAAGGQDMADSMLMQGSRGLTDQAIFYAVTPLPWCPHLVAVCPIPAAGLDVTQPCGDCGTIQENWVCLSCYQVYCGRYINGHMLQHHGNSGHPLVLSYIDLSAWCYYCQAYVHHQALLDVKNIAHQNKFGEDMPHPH
# [3] = biological target: Cholinesterase (Equus caballus, UniProt P81908)
# Chain of Cholinesterase (P81908 whole entry): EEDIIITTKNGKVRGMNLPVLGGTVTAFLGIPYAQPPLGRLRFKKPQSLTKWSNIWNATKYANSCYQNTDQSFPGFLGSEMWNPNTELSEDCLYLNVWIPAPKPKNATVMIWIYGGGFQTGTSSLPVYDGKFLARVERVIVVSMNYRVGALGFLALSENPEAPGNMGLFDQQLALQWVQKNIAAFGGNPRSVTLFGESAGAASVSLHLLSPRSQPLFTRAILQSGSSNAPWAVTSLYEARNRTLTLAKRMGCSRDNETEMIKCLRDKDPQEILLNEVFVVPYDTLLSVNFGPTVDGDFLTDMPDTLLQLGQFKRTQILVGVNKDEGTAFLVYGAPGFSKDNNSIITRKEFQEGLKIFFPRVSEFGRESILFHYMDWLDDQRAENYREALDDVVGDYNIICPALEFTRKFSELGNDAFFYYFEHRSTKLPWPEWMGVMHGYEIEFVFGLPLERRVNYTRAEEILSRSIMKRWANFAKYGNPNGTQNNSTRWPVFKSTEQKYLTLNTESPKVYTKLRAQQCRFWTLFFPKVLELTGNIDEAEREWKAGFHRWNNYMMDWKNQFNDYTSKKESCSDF
# [4] = biological target: T3, Amine oxidase [flavin-containing] B (Homo sapiens, UniProt P27338); conditions: read-out: INH
# T3 sequence (P27338 whole entry): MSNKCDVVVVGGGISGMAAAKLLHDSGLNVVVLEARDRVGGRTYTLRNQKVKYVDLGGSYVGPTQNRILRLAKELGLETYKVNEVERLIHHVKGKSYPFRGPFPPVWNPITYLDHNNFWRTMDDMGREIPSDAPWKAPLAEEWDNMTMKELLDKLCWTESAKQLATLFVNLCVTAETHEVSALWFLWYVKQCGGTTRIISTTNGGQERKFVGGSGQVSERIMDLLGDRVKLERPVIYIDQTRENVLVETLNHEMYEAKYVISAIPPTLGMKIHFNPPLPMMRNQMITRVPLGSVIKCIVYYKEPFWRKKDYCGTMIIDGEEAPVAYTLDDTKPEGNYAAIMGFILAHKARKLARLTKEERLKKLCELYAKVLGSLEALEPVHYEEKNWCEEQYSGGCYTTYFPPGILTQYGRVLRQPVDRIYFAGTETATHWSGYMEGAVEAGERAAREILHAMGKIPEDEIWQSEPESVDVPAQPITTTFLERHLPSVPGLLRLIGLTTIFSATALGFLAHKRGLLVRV
# Description: Inhibition of human recombinant MAO-B using para-tyramine as substrate at 1 uM by Amplex Red fluorimetric assay relative to control
# [5] = biological target: T1, Histone deacetylase 1; assay: biochemical; remark: listed apart in the source
# [6] = biological target: Histone deacetylase 3/Nuclear receptor corepressor 2 (HDAC3/NCoR2) (Homo sapiens, UniProt O15379); assay: biochemical
# Chain of Histone deacetylase 3/Nuclear receptor corepressor 2 (HDAC3/NCoR2) (O15379 whole entry): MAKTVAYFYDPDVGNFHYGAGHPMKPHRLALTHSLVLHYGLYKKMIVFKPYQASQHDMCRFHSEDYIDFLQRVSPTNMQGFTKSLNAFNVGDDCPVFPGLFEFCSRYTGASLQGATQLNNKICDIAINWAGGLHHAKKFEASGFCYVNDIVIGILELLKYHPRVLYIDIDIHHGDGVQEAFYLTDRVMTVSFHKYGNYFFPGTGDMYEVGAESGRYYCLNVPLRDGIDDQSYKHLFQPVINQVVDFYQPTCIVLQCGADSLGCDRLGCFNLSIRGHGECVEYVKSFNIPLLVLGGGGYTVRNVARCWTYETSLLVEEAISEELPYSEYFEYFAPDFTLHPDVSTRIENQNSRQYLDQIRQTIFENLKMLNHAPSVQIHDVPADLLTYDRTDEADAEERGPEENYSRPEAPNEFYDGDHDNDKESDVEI
# Chain of Histone deacetylase 3/Nuclear receptor corepressor 2 (HDAC3/NCoR2) (Q9Y618 whole entry, further chain): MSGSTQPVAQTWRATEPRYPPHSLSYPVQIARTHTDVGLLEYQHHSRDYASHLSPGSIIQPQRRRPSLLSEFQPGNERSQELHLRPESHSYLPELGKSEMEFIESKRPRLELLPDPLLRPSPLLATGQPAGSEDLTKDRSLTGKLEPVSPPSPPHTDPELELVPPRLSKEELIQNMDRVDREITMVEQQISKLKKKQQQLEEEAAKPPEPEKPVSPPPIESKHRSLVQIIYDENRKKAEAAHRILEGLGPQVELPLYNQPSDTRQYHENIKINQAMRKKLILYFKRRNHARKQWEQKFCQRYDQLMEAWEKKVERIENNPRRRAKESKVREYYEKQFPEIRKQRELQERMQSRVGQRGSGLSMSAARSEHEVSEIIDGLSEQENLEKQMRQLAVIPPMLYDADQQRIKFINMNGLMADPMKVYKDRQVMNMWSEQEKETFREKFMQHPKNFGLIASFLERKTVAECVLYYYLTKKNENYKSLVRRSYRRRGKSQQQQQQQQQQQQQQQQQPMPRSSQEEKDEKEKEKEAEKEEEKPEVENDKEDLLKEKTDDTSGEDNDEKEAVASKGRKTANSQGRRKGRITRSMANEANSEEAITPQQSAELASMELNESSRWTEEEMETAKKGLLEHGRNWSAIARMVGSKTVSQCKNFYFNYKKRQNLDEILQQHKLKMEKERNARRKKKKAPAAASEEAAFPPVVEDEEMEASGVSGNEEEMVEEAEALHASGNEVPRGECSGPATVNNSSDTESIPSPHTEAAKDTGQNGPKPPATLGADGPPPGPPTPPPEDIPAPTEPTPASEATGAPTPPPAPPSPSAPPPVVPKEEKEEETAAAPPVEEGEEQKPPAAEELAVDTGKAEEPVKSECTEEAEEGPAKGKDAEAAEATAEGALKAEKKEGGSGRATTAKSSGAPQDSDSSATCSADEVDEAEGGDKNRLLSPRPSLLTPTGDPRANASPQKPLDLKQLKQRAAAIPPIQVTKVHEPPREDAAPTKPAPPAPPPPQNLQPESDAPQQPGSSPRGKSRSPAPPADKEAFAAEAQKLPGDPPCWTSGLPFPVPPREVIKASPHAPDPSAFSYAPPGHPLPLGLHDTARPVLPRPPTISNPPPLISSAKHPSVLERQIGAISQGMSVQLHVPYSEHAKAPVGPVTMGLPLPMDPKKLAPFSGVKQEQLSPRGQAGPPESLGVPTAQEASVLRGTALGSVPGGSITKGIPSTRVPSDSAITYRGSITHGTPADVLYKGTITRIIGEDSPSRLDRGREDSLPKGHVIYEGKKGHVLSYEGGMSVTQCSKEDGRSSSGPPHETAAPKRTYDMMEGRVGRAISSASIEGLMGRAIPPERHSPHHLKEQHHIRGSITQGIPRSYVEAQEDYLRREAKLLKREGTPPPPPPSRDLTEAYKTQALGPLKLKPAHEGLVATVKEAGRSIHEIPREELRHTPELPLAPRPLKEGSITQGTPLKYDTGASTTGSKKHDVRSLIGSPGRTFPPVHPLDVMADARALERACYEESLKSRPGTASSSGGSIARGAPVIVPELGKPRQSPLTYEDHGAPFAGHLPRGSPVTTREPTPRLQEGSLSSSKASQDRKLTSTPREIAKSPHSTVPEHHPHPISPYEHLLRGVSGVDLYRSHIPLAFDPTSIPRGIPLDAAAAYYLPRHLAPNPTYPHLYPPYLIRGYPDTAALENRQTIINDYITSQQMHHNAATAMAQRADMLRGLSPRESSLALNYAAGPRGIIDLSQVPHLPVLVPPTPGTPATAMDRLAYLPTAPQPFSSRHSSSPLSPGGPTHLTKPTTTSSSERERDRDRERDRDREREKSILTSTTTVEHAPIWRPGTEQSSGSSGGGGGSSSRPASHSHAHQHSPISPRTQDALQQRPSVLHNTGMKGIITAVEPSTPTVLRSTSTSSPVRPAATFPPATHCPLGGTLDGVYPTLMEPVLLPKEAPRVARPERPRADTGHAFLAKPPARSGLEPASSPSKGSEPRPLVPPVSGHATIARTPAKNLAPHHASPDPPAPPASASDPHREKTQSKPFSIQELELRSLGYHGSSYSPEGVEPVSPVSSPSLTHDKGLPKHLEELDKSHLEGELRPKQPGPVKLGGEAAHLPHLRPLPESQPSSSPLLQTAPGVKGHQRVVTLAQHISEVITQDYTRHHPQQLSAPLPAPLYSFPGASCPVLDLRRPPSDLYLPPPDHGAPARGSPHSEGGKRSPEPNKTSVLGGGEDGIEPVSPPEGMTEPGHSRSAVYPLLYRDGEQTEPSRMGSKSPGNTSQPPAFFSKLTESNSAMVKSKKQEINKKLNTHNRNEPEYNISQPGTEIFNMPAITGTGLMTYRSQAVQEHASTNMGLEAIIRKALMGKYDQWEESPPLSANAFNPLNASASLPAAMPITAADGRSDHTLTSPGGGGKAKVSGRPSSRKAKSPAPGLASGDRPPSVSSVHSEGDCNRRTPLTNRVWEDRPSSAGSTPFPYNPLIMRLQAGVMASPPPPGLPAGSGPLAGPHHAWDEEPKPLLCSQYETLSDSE
# [7] = biological target: Histone deacetylase 2 (Homo sapiens, UniProt Q92769); assay: biochemical
# Chain of Histone deacetylase 2 (Q92769 whole entry): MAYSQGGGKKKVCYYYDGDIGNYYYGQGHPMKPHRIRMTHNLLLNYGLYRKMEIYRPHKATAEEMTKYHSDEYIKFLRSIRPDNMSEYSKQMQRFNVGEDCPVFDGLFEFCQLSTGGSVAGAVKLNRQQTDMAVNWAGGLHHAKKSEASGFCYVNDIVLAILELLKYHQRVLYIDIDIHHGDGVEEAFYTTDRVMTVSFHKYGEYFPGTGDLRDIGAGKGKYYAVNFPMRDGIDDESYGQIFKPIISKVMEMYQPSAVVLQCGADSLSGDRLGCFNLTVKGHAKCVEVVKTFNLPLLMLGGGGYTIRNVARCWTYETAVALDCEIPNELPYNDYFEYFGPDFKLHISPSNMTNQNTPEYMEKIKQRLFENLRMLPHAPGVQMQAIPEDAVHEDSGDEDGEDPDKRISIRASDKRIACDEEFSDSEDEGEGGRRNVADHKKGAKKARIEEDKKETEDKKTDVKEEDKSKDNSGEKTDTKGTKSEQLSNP
# T1 sequence (Q13547 whole entry): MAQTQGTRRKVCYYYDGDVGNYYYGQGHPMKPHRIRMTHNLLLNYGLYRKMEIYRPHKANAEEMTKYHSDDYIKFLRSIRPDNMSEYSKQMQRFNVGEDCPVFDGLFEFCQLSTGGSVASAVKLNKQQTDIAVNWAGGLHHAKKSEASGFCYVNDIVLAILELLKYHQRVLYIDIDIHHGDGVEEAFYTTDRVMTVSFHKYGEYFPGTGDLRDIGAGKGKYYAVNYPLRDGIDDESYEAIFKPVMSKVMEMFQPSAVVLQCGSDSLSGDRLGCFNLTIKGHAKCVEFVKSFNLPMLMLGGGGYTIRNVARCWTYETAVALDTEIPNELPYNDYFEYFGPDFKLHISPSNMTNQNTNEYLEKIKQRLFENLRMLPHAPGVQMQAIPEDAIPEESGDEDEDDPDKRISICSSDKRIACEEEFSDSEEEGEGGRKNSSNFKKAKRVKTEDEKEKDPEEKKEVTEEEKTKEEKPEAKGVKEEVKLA
SMILES,IC50 [1] [µM],IC50 [2] [µM],other results
COc1ccc2c(ccn2S(=O)(=O)c2ccc(C(=O)NN)cc2)c1,> 10,> 10,–
O=C(NO)c1ccc(S(=O)(=O)n2ccc3cc(OCc4ccccc4)ccc32)cc1,3.99,–,–
C#CCN1CCN(CCCOc2ccc3c(ccn3S(=O)(=O)c3ccc(C(=O)NNCCC)cc3)c2)CC1,–,> 10,IC50 [3]: 8.81 µM
CCCNNC(=O)c1ccc(S(=O)(=O)n2ccc3cc(OCCCN4CCCCC4)ccc32)cc1,–,> 10,inhibition at 1 µM [4]: < 10%
C#CCN1CCN(CCCOc2ccc3c(ccn3S(=O)(=O)c3ccc(C(=O)NN)cc3)c2)CC1,> 10,> 10,–
C#CCN(C)Cc1cc2cc(OCCCN3CCCCC3)ccc2n1C,–,> 10,IC50 [5]: > 10 µM; IC50 [6]: > 10 µM
NNC(=O)c1ccc(S(=O)(=O)n2ccc3cc(OCc4ccccc4)ccc32)cc1,> 10,> 10,–
COc1ccc2c(ccn2S(=O)(=O)c2ccc(C(=O)NO)cc2)c1,–,0.168,–
C#CCN1CCN(CCCOc2ccc3c(ccn3S(=O)(=O)c3ccc(C(=O)NO)cc3)c2)CC1,–,–,inhibition at 1 µM [4]: 28%; IC50 [7]: 5.41 µM; IC50 [6]: 2.71 µM
C#CCN1CCN(CCCOc2ccc3c(ccn3S(=O)(=O)c3ccc(C(=O)Nc4ccccc4N)cc3)c2)CC1,–,> 3.33,–
CCCNNC(=O)c1ccc(S(=O)(=O)n2ccc3cc(OC)ccc32)cc1,–,> 10,inhibition at 1 µM [4]: < 10%
CCCN(CCC)NC(=O)c1ccc(S(=O)(=O)n2ccc3cc(OC)ccc32)cc1,–,> 10,IC50 [5]: > 10 µM
Nc1ccccc1NC(=O)c1ccc(S(=O)(=O)n2ccc3cc(OCc4ccccc4)ccc32)cc1,–,> 10,–
Nc1ccccc1NC(=O)c1ccc(S(=O)(=O)n2ccc3cc(OCCCN4CCCCC4)ccc32)cc1,–,> 10,–
NNC(=O)c1ccc(S(=O)(=O)n2ccc3cc(OCCCN4CCCCC4)ccc32)cc1,> 10,> 10,–
O=C(NO)c1ccc(S(=O)(=O)n2ccc3cc(OCCCN4CCCCC4)ccc32)cc1,0.735,–,inhibition at 1 µM [4]: < 10%; IC50 [7]: 1.92 µM; IC50 [6]: 0.937 µM
